Consider four compounds from patent US11401233B1, “Pleuromutilin salicylic acid ester with antibacterial activity and a method of preparing the same” (SHAANXI UNIVERSITY OF SCIENCE AND TECHNOLOGY, priority 2021, dated 2022).

Assay [1] deals with MRSA-171. Nature of the assay: Paper diffusion method drug sensitivity test, MRSA-171. To be noted: for Zone of inhibition: MRSA-171, 30 μg/tablet paper disc 6.35 mm, LB plate, 37° C., 24 h, ≥17 mm sensitive, 15-16 mm intermediary, ≤14 mm drug resistance. The class given is cell-based, Staphylococcus aureus.
For assay [2], the system named is multi-resistant Staphylococcus aureus 596 (MRSA-596). Nature of the assay: Paper diffusion method drug sensitivity test, MRSA-596. The class given is cell-based. To be noted: for Zone of inhibition: MRSA-596, 30 μg/tablet paper disc 6.35 mm, LB plate, 37° C., 24 h, ≥17 mm sensitive, 15-16 mm intermediary, ≤14 mm drug resistance. How it is done: (§1) The antimicrobial efficacy was determined by a paper diffusion method drug sensitivity test.
(§2) E Experimental strains: multi-resistant Staphylococcus aureus 206 (MRSA-206), multi-resistant Staphylococcus aureus 575 (MRSA-575), multi-resistant Staphylococcus aureus 596 (MRSA-596). The experimental strain was identified by Huashan Hospital Affiliated to Fudan University (Institute of Antibiotic of Fudan University).
(§3) Drug sensitive paper: The drug sensitive paper was a special drug sensitive paper with a diameter of 6.35 mm and a water absorption of 0.02 mL. The control drug was vancomycin (30 μg/tablet); the test drugs were pleuromulin (30 μg/tablet), salicylic acid (30 μg/tablet) and pleuromulin salicylic acid ester (30 μg/tablet).
(§4) Reagents: LB agar medium, LA broth medium, 0.5% DMSO solution.
(§5) T The experimental strains were inoculated in non-selective medium and placed in air at 37° C. for 24 h. A single colony that grows well and inoculate it into broth medium was incubate at 35° C.±2° C. for 6 hours, and LA broth medium was used to calibrate the concentration of the bacterial solution to 0.5 Mie turbidimetric tube (1.5×10^8 CFU/mL). A bacterial suspension was obtained.
(§6) LB dry powder was weighed, sterilized at 103.4 Kpa, 121.3° C. high-pressure steam for 15 min, and then placed it in a 40° C.-50° C. water bath. A sterile empty plate (inner diameter 9 cm) was placed on the surface of the ultra-clean table water table, and […] to the plate. The thickness of each plate was 3 mm to 4 mm. After the plate was cooled at room temperature, it was stored in the refrigerator at 2° C.-8° C. A sterile cotton swab was used to dip the bacterial solution and ti evenly coat the surface of the LB plate 3 times. After inoculation of the bacterial suspension, the LB plate was dried at room temperature for 3 min to 5 min. Sterile forceps were used to closely attach the antibacterial drug paper to the dish. The dish was put upside down and placed in a 37° C. incubator for 24 h. The results were observed by measuring the diameter. Taking 0.5% DMSO solution as a negative control, the antibacterial activity is expressed by the diameter of the inhibition zone. The inhibition zone≥17 mm, sensitive; the inhibition zone of 15 mm-16 mm, intermediary; the inhibition zone≤14 mm, drug resistance.

Assay [3] concerns drug-resistant bacteria. Nature of the assay: Paper diffusion method drug sensitivity test, overall statement on drug-resistant bacteria. To be noted: drug-resistant bacteria in general (strains of Table 1); 30 μg/tablet. The class given is cell-based, Staphylococcus aureus. How it is done: as §1, §2, §3, §4, §5
as §6, with “Taking 0.5% DMSO solution as a negative control, the antibacterial activity is expressed by the diameter of the inhibition zone. The inhibition zone≥17 mm, sensitive; the inhibition zone of 15 mm-16 mm, intermediary; the inhibition zone≤14 mm, drug resistance.” left out

In assay [4] the test system is multi-resistant Staphylococcus aureus 575 (MRSA-575). Nature of the assay: Paper diffusion method drug sensitivity test, MRSA-575. To be noted: for Zone of inhibition: MRSA-575, 30 μg/tablet paper disc 6.35 mm, LB plate, 37° C., 24 h, ≥17 mm sensitive, 15-16 mm intermediary, ≤14 mm drug resistance. It is filed as cell-based. How it is done: as §1, §2, §3, §4, §5, §6

In the case of `C=C[C@]1(C)C[C@@H](OC(=O)CO)[C@]2(C)[C@H](C)CC[C@]3(CCC(=O)[C@H]32)[C@@H](C)[C@@H]1O` [Pleuromulin], the Zone of inhibition in assay [1], in assay [2] and in assay [4] was 0 mm in each case. Further, the “inhibitory effect on drug-resistant bacteria (in words)” value in assay [3] is “no inhibitory effect”.
`O=C(O)c1ccccc1O` [Salicylic acid]: the Zone of inhibition in assay [1], in assay [2] and in assay [4] was 0 mm each time. In assay [3], the “inhibitory effect on drug-resistant bacteria (in words)” value is given as “no inhibitory effect”.
With `CN[C@H](CC(C)C)C(=O)N[C@H]1C(=O)N[C@@H](CC(N)=O)C(=O)N[C@H]2C(=O)N[C@H]3C(=O)N[C@H](C(=O)N[C@H](C(=O)O)c4cc(O)cc(O)c4-c4cc3ccc4O)[C@H](O)c3ccc(c(Cl)c3)Oc3cc2cc(c3O[C@@H]2O[C@H](CO)[C@@H](O)[C@H](O)[C@H]2O[C@H]2C[C@](C)(N)[C@H](O)[C@H](C)O2)Oc2ccc(cc2Cl)[C@H]1O` [Vancomycin, vancomycin], the Zone of inhibition in assay [1] is given as 15 mm; in assay [2] it was 23 mm; in assay [4], 17 mm.
Consider `C=C[C@]1(C)C[C@@H](OC(=O)COC(=O)c2ccccc2O)[C@]2(C)[C@H](C)CC[C@]3(CCC(=O)[C@H]32)[C@@H](C)[C@@H]1O`, for which the Zone of inhibition in assay [1] came to 16 mm; in assay [2], 26 mm; in assay [4] it was 10 mm. Also, the “inhibitory effect (in words)” value was “strong inhibitory effects” in assay [1] (multi-drug resistant Staphylococcus aureus 171, 30 μg/tablet); “strong inhibitory effects” in assay [2] (multi-drug resistant Staphylococcus aureus 596, 30 μg/tablet); “strong inhibitory effects” in assay [4] (multi-drug resistant Staphylococcus aureus 575, 30 μg/tablet). Also, the “inhibitory effect on drug-resistant bacteria (in words)” value in assay [3] is “excellent antibacterial activity and anti-drug-resistant bacteria activity”.
